Reference: ChEMBL document CHEMBL1201862, “PubChem BioAssay data set” (2004)
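96-well plates; 48 h exposure; 5 concentrations. Endpoints by linear interpolation between flanking doses. Not reached: highest tested concentration assigned. GI50 is the concentration that inhibits growth by half.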 Active and inactive are the calls of the source. Cut-off read from the data, not from the text of the source: active = GI50 up to about 1.1 µM and inactive = higher.

Legend:
Assay in all cases: NCI anticancer screen, dose series, 48 h
OVCAR-5 = system: OVCAR-5
SF-539 = system: SF-539
A498 = system: A498
K562 = system: K562
UACC-62 = system: UACC-62
NCI-H522 = system: NCI-H522
ACHN = system: ACHN
UACC-257 = system: UACC-257
UO-31 = system: UO-31
KM12 = system: KM12
SF-295 = system: SF-295
SN12C = system: SN12C
HOP-62 = system: HOP-62
HL-60 = system: HL-60
CAKI-1 = system: CAKI-1
PC-3 = system: PC-3
Hs-578T = system: Hs-578T

SMILES	GI50 (OVCAR-5)	GI50 (SF-539)	GI50 (A498)	GI50 (K562)	GI50 (UACC-62)	GI50 (NCI-H522)	GI50 (ACHN)	GI50 (UACC-257)	GI50 (UO-31)	GI50 (KM12)	GI50 (SF-295)	GI50 (SN12C)	GI50 (HOP-62)	GI50 (HL-60)	GI50 (CAKI-1)	GI50 (PC-3)	GI50 (Hs-578T)
COc1ccccc1-c1cc(=O)c2cc(C)c(C)c(C(=O)O)c2o1	> 100 µM (inactive)	> 100 µM (inactive)	> 100 µM (inactive)	> 100 µM (inactive)	> 100 µM (inactive)	> 100 µM (inactive)	> 100 µM (inactive)	> 100 µM (inactive)	> 100 µM (inactive)	> 100 µM (inactive)	> 100 µM (inactive)	> 100 µM (inactive)	> 100 µM (inactive)	> 100 µM (inactive)			
O=c1[nH]c(=O)n(C2OC(COP(=O)(O)OP(=O)(O)OC3OC(CO)C(O)C(O)C3O)C(O)C2O)cc1F (stereo not drawn)	0.908 µM (active)	0.0552 µM (active)	0.239 µM (active)	0.0302 µM (active)	0.307 µM (active)	0.327 µM (active)	0.0217 µM (active)	0.615 µM (active)	0.04 µM (active)	0.0317 µM (active)	0.127 µM (active)	0.0809 µM (active)	0.302 µM (active)	0.065 µM (active)	0.109 µM (active)		
COc1cc(/C=C2\NC(=O)C3Cc4c(OC)c(C)c(OC)c(OC)c4C2N3C)c(OC)c(C)c1OC (stereo not drawn)	> 100 µM (inactive)	> 100 µM (inactive)	> 100 µM (inactive)	> 100 µM (inactive)	> 100 µM (inactive)	99.5 µM (inactive)	> 100 µM (inactive)	> 100 µM (inactive)	> 100 µM (inactive)	> 100 µM (inactive)	> 100 µM (inactive)	> 100 µM (inactive)	> 100 µM (inactive)	> 100 µM (inactive)	> 100 µM (inactive)		
Cc1c(C(=O)C/C(=N/NC(=O)C[N+](C)(C)C)C(=O)Nc2ccc(Cl)cc2)[n+]([O-])c2ccccc2[n+]1[O-]	> 100 µM (inactive)	> 100 µM (inactive)	> 100 µM (inactive)	> 100 µM (inactive)	> 100 µM (inactive)	> 100 µM (inactive)	> 100 µM (inactive)	> 100 µM (inactive)	> 100 µM (inactive)	> 100 µM (inactive)	> 100 µM (inactive)	> 100 µM (inactive)	> 100 µM (inactive)	> 100 µM (inactive)	> 100 µM (inactive)		
CC1=C2C(=CC(C)(C)C2O)C(=O)C(C)(O)C12CC2 (stereo not drawn)	0.0128 µM (active)	0.0209 µM (active)	0.0279 µM (active)	0.00558 µM (active)	0.0116 µM (active)	0.00469 µM (active)	0.00479 µM (active)	0.014 µM (active)	0.0127 µM (active)	0.0158 µM (active)	0.00724 µM (active)	0.0189 µM (active)	0.0119 µM (active)	0.00345 µM (active)	0.00552 µM (active)		
COC1=CC(=O)C(Br)=CC1=O	> 10 µM (inactive)			3.06 µM (inactive)	17.6 µM (inactive)	8.69 µM (inactive)		17.3 µM (inactive)	17.5 µM (inactive)			18.5 µM (inactive)	> 100 µM (inactive)	5.32 µM (inactive)	18.4 µM (inactive)		
CSc1nc2c(nc(N)n2C2OC(CO)C(O)C(O)C2O)c(=O)[nH]1 (stereo not drawn)		> 100 µM (inactive)	> 100 µM (inactive)	> 100 µM (inactive)	> 100 µM (inactive)	> 100 µM (inactive)	> 100 µM (inactive)	> 100 µM (inactive)	> 100 µM (inactive)	> 100 µM (inactive)	> 100 µM (inactive)	> 100 µM (inactive)	> 100 µM (inactive)	> 100 µM (inactive)	> 100 µM (inactive)		
O=C(c1nc2ccc(Cl)cc2nc1O)C(O)c1ccc2c(c1)OCO2 (stereo not drawn)	> 100 µM (inactive)		> 100 µM (inactive)	53.8 µM (inactive)	84.5 µM (inactive)	13.3 µM (inactive)	65.3 µM (inactive)	> 100 µM (inactive)	> 100 µM (inactive)	63.7 µM (inactive)	> 100 µM (inactive)		> 100 µM (inactive)	19.7 µM (inactive)			
O=C1N(c2ccc(Cl)cc2)C(=O)C2(SC=NN2Cc2ccccc2)N1c1ccc(Cl)cc1 (stereo not drawn)		34.3 µM (inactive)	> 100 µM (inactive)	9.59 µM (inactive)	> 100 µM (inactive)	7.76 µM (inactive)	> 100 µM (inactive)	> 100 µM (inactive)	> 100 µM (inactive)	> 100 µM (inactive)	> 10 µM (inactive)	> 100 µM (inactive)	> 100 µM (inactive)	7 µM (inactive)			
O=C(Nc1ccccc1)OCc1nc2c([nH]1)C(=O)C=CC2=O	22.2 µM (inactive)	> 100 µM (inactive)	16.2 µM (inactive)	2.55 µM (inactive)	19.7 µM (inactive)		12.6 µM (inactive)	3.42 µM (inactive)	16.8 µM (inactive)	15.6 µM (inactive)	18.6 µM (inactive)	17.2 µM (inactive)	> 100 µM (inactive)	3.29 µM (inactive)	0.35 µM (active)		
CCC12C[N+]3([O-])CCc4c([nH]c5ccccc45)C(C(=O)OC)(c4cc5c(cc4OC)N(C)C4C(O)(C(=O)OC)C(OC(C)=O)C6(CC)C=CCN7CCC54C76)CC(C3)C1O2 (stereo not drawn)	3.94 µM (inactive)	0.28 µM (active)	1.55 µM (inactive)	0.207 µM (active)	0.323 µM (active)	0.063 µM (active)	10.5 µM (inactive)	7.01 µM (inactive)	3.17 µM (inactive)	0.337 µM (active)	0.291 µM (active)	2.33 µM (inactive)	23.7 µM (inactive)		5.93 µM (inactive)		
O=C(O)C1(C(=O)O)CC1		> 100 µM (inactive)	> 100 µM (inactive)	> 100 µM (inactive)	> 100 µM (inactive)	> 100 µM (inactive)	> 100 µM (inactive)	> 100 µM (inactive)	> 100 µM (inactive)	> 100 µM (inactive)	> 100 µM (inactive)	> 100 µM (inactive)	> 100 µM (inactive)	> 100 µM (inactive)	> 100 µM (inactive)		
Nc1c(C(=O)Nc2ccccc2O)[n+]([O-])c2ccccc2[n+]1[O-]	> 100 µM (inactive)	32.3 µM (inactive)	> 100 µM (inactive)	41.9 µM (inactive)		43.4 µM (inactive)	87.5 µM (inactive)	18.8 µM (inactive)	37.5 µM (inactive)	79.3 µM (inactive)	58.9 µM (inactive)	63.2 µM (inactive)	> 100 µM (inactive)	25.8 µM (inactive)	> 100 µM (inactive)		
O=C(CSc1nnc(-c2ccc(/N=C\c3ccc(Cl)cc3)cc2)o1)Nc1cccc([N+](=O)[O-])c1				> 100 µM (inactive)	> 100 µM (inactive)	27.5 µM (inactive)	> 100 µM (inactive)	> 100 µM (inactive)	> 100 µM (inactive)	> 100 µM (inactive)	> 100 µM (inactive)	> 100 µM (inactive)	> 100 µM (inactive)	> 100 µM (inactive)			
COc1cccc(N2C(=O)/C(=C/c3ccc(N(CCC#N)CCC#N)cc3)N=C2c2cc([N+](=O)[O-])ccc2Cl)c1	18.5 µM (inactive)	> 100 µM (inactive)	> 100 µM (inactive)	34.5 µM (inactive)	39.1 µM (inactive)	55.8 µM (inactive)	44 µM (inactive)	> 100 µM (inactive)	82 µM (inactive)	49.5 µM (inactive)	19.7 µM (inactive)	87.7 µM (inactive)	50.9 µM (inactive)	49.8 µM (inactive)	> 100 µM (inactive)		
C=C(C)[C@@H]1CC[C@]2(COC(C)=O)CC[C@]3(C)[C@H](CC[C@@H]4[C@@]5(C)CC[C@H](OC(C)=O)C(C)(C)[C@@H]5CC[C@]43C)[C@@H]12 [BETULIN DIACETATE]		> 50 µM (inactive)	> 50 µM (inactive)	> 50 µM (inactive)	> 50 µM (inactive)	> 50 µM (inactive)	> 50 µM (inactive)	> 50 µM (inactive)	> 50 µM (inactive)			> 50 µM (inactive)	> 50 µM (inactive)	> 33.1 µM (inactive)		> 50 µM (inactive)	> 50 µM (inactive)
O=C(c1ccccc1)C(c1ccccc1)C1(O)C(=O)Nc2ccc(Br)cc21 (stereo not drawn)	> 100 µM (inactive)	44.9 µM (inactive)	> 100 µM (inactive)	18.9 µM (inactive)	20.1 µM (inactive)	20.9 µM (inactive)	> 100 µM (inactive)	22.3 µM (inactive)	63.8 µM (inactive)	95.3 µM (inactive)	> 100 µM (inactive)	35.8 µM (inactive)	59.3 µM (inactive)	16.6 µM (inactive)	99.1 µM (inactive)		
O=C(OCc1ccccc1)n1cccc1	> 100 µM (inactive)	> 100 µM (inactive)	> 100 µM (inactive)	97.1 µM (inactive)	> 100 µM (inactive)	> 100 µM (inactive)	> 100 µM (inactive)	> 100 µM (inactive)	46.3 µM (inactive)	> 100 µM (inactive)	> 100 µM (inactive)	> 100 µM (inactive)	> 100 µM (inactive)	57.4 µM (inactive)	> 100 µM (inactive)		
CN(C)C(=S)Nc1nnc(NC23CC4CC(CC(C4)C2)C3)s1.[O-][Cl+3]([O-])([O-])O	10 µM (inactive)	10 µM (inactive)	15 µM (inactive)	15.8 µM (inactive)	16.5 µM (inactive)	16.1 µM (inactive)	21.8 µM (inactive)	14.5 µM (inactive)	12.4 µM (inactive)	18.7 µM (inactive)	13.8 µM (inactive)	15.3 µM (inactive)	18.6 µM (inactive)	7.57 µM (inactive)	20.1 µM (inactive)		
